Measured values: patent publication US12090155B2, “Methods” (INTRA-CELLULAR THERAPIES, INC., priority 2019, dated 2024)
“Also recorded” adds a separate entry of the source.

Experiments:
[1] = test system: patients with Bipolar I or Bipolar II disorder experiencing a major depressive episode; assay: Phase 3 placebo-controlled clinical trial, safety and tolerability; assay type: in vivo, human
Procedure: (§1) A multi-center, multi-national, randomized, double-blind, fixed-dose, placebo-controlled clinical trial is conducted substantially in accordance with the following protocol.
(§2) Patients are recruited according to the following criteria: • Major Inclusion Criteria: Male or female subjects of any race, ages 18-75 inclusive, with a clinical diagnosis of Bipolar I or Bipolar II disorder, experiencing a current major depressive episode, and able to provide written informed consent. • Major Exclusion Criteria: Any female subject who is pregnant or breast-feeding, and any subject judged to be medically inappropriate for study participation.
(§3) In the placebo arm, placebo is administered once daily every evening for 6 weeks. […] The study is quadruple-masked (i.e., to participant, care provider, investigator, and outcomes assessor).
(§4) The total study duration is about 10 weeks, including up to 2 weeks screening period (washout of prohibited medications), a 6-week double-blind treatment period, and 2-week safety follow-up period.
Incidence of Adverse Events (AEs) • b. Young Mania Rating Scale (YMRS) • c. Columbia Suicide Severity Rating Scale (C-SSRS) • d. Abnormal Involuntary Movement Scale (AIMS) • e. Barnes Akathisia Rating Scale (BARS) • f. Simpson Angus Scale (SAS) • g. Clinical laboratory evaluations • h. Electrocardiograms (ECGs) • i. Vital sign measurements • j. Physical examination and neurological findings

[2] = test system: patients with Bipolar I or Bipolar II disorder experiencing a major depressive episode; assay: Phase 3 placebo-controlled clinical trial, efficacy (MADRS, CGI-BP-S); assay type: in vivo, human
Procedure: as §1, §2, §3, §4
The primary outcome measure is the Montgomery-Åsberg Depression Rating Scale (MADRS) [Time Frame: Day 43]. Secondary outcome measures are the Clinical Global Impression Scale, Bipolar version (CGI-BP) [Time Frame: Day 43] and the Quality of Life Enjoyment and Satisfaction Questionnaire-Short Form (Q-LES-Q-SF) [Time Frame: Day 43].

[3] = 42 mg once daily orally for 6 weeks, Day 43, ITT
[4] = 42 mg once daily orally for 6 weeks, Day 43, listed as lumateperone
[5] = 42 mg once daily orally for 6 weeks, change from baseline to Day 43, ITT
[6] = 42 mg once daily, week 6, ITT population

Structure (SMILES): CN1CCN2c3c(cccc31)[C@@H]1CN(CCCC(=O)c3ccc(F)cc3)CC[C@@H]12 [Lumateperone, 4-((6bR,10aS)-3-methyl-2,3,6b,9,10,10a-hexahydro-1H-pyrido[3′,4′: 4,5]pyrrolo[1,2,3-de]quinoxalin-8(7H)-yl)-1-(4-fluorophenyl)-1-butanone]
- Emergence of mania as measured by the Young Mania Rating Scale (YMRS) and clinical global impression of severity for mania ([1]; 42 mg daily): did not exhibit emergence of mania
- Extrapyramidal symptoms, akathisia, restlessness or other motor side effects (adverse event reports) ([1]; 42 mg daily): does not increase akathisia, restlessness, or other movement disorders; also recorded: no adverse event reports of extrapyramidal symptoms
- Metabolic effects (hyperglycemia, dyslipidemia, weight gain) ([1]; 42 mg daily): does not have significant metabolic side effects; also recorded: did not appear to have any noticeable metabolic effects
- Overall safety profile / tolerability ([1]; 42 mg daily): favorable safety profile in this trial, comparable to placebo; also recorded: generally safe and well tolerated
- Rate of the most commonly reported adverse events (headache, somnolence and nausea), higher than placebo ([1]; 42 mg daily): greater than 5%
- Rates of akathisia and extrapyramidal symptoms ([1]; 42 mg daily): less than 1%
- Suicidal ideation (adverse event reports) ([1]; 42 mg daily): does not increase suicidal ideation; also recorded: no adverse event reports of suicidal ideation
- Number of patients with drug-related TEAE ([1]; 42 mg, N = 188): 78 (41.5) n (%)
- Number of patients with drug-related treatment-emergent SAE ([1]; 42 mg, N = 188): 0 n (%)
- Number of patients with treatment-emergent SAE ([1]; 42 mg, N = 188): 1 (0.5) n (%)
- Number of patients with treatment-emergent death ([1]; 42 mg, N = 188): 0 n (%)
- Subjects discontinued study due to TEAE ([1]; 42 mg, N = 188): 11 (5.9) n (%)
- Subjects discontinued study due to drug-related TEAE ([1]; 42 mg, N = 188): 9 (4.8) n (%)
- Subjects discontinued study due to drug-related treatment-emergent SAE ([1]; 42 mg, N = 188): 0 n (%)
- Subjects discontinued study due to treatment-emergent SAE ([1]; 42 mg, N = 188): 1 (0.5) n (%)
- Subjects who died ([1]; 42 mg, N = 188): 0 n (%)
- Number of patients with one or more TEAE ([1]; 42 mg, N = 188, safety population): 103 (54.8) n (%)
- MADRS total score versus placebo, subgroup of patients with Bipolar II disorder ([2]; 42 mg daily, subgroup analysis, Bipolar II disorder): statistically significant superior versus placebo; also recorded: statistically significant superior to placebo
- Responder rates and remission rates versus placebo ([2]; 42 mg once daily): statistically significant benefits
- Time of first statistically significant separation from placebo on MADRS total score ([2]; 42 mg once daily): as early as week 1
- MADRS total score, Effect Size, comparison to placebo at Day 43 ([2]; 42 mg once daily orally for 6 weeks, Day 43): −0.56
- CGI-BP-S total score, LSMD (SE), comparison to placebo at Day 43 [2, 3]: −0.9 (0.22)
- MADRS total score, LSMD (SE), comparison to placebo at Day 43 [2, 3]: -4.6
- CGI-BP-S total score, Effect Size, comparison to placebo at Day 43 [2, 4]: 0.46
- MADRS total score, Effect Size, comparison to placebo at Day 43 [2, 4]: 0.56
- CGI-BP-S total score, LS Mean (SE) Change at Day 43 [2, 5]: −3.5 (0.17)
- MADRS total score, LS Mean (SE) Change at Day 43 [2, 5]: −16.7 (0.69)
- CGI-S Depression Score, effect size versus placebo ([2]; 42 mg once daily, 6 weeks): 0.5
- MADRS total score, LS mean difference versus placebo [2, 6]: 4.6 points
- MADRS total score, least squares (LS) mean reduction from baseline [2, 6]: 16.7 points
